Measurements as given in PubChem BioAssay (NCI).
“And” between values parts separate entries of the source, which are not always exact repeats. Equal values may be shown once.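 Dose response: 5 concentrations. Exposure: 48 h. Format: 96-well plates. Endpoint: linear interpolation; highest concentration if not reached. GI50 = concentration required for 50% inhibition of growth. The concentration for full growth arrest is given as TGI.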

Test system: MDA-MB-468 breast
Assay: NCI-60 cell line screen, 48 h

`Clc1ccc(-c2cc(-c3ccccc3)nc(N3CCN(CCCNc4ccnc5cc(Cl)ccc45)CC3)n2)cc1` gave a GI50 of 0.352 µM and a TGI of 1.61 µM.
Compound `O=C(COc1ccc(/C=C2\Oc3ccc4ccccc4c3C2=O)cc1)c1ccc([N+](=O)[O-])cc1` has a GI50 of 1.07 µM and a TGI of 3.05 µM.
Compound `Cc1cc(F)c(C(=O)Nc2cccc(-c3nncn3C(C)C)n2)cc1-n1cnc(C2CC2)c1` has a GI50 of 7.76 µM and a TGI of 83.3 µM.
Work on `O=C(NNc1nc2cc(F)cc(F)c2n2cccc12)c1ccncn1` yielded a GI50 of over 30 µM and a TGI of over 30 µM.
With `COc1ccccc1-n1cnc(N)c1C(=O)c1cc(OC)c(OC)c(OC)c1` the GI50 was 1.85 µM and the TGI was 6.57 µM.
`C[C@@H](O)[C@@H](C)Oc1nc(Nc2ccc(S(=N)(=O)C3CC3)cc2)ncc1C(F)(F)F` (some centres undefined) gave a GI50 of 0.023 µM and a TGI of 0.0615 µM.
With `C[C@@H](Nc1nc(N[C@H](C)C(F)(F)F)nc(-c2cccc(Cl)n2)n1)C(F)(F)F` the GI50 was 41.9 µM and the TGI was over 100 µM.
Compound `C1=N[C@]23C(=N[C@H](N=C2NCc2ccco2)[C@]24N=CNC2=N[C@H]3N=C4NCc2ccco2)N1` has a GI50 of 26.6 µM and a TGI of over 100 µM.
In the case of `COc1ccc(C(=O)/C=C/c2sc(Cl)nc2Cl)cc1`, the GI50 is reported as 1.38 µM and the TGI is reported as 3.51 µM.
`COc1ccc(-c2nn(-c3cccc(Cl)c3)cc2/C=C2\NC(=S)N(c3ccc(Cl)cc3)C2=O)cc1` was tested, and the GI50 was 3.03 µM and the TGI was 6.89 µM.
Compound `O=C(Nc1ccc(OS(=O)(=O)c2ccc(F)cc2)cc1)C12CC3CC(CC(C3)C1)C2` has a GI50 of 1.33 µM and a TGI of over 100 µM.
`Cc1c2cnccc2c(C)c2c1c1cc(O)ccc1n2C(C)C` was tested, and the GI50 was 2.12 µM and the TGI was 4.74 µM.
In the case of `Cc1nnc(C[C@@H]2C=C(c3ccc(Cl)cc3)c3ccccc3-n3c(C)nnc32)o1`, the GI50 is reported as 0.745 µM and the TGI is reported as 22.8 µM.
`C[C@@H]1CC[C@H]2[C@@H](C)C(O)O[C@@H]3O[C@]4(C)CC[C@@H]1[C@]32OO4` (some centres undefined) showed a GI50 of 3.58 µM and a TGI of 33.2 µM.
For `Cc1cccc2c(C3=C(c4cn(C)c5ccccc45)C(=O)NC3=O)cn(C)c12`, the GI50 was 13.9 µM and the TGI was over 25 µM.
`CN(C)c1ccc(C(=S)c2ccc(N(C)C)cc2)cc1` was tested, and the GI50 was 2.05 µM and the TGI was 8.21 µM.
Compound `Oc1ccc(NC(=S)Nc2ccccc2)cc1` has a GI50 of over 100 µM and a TGI of over 100 µM.
`O=c1cc(-c2ccc(Cl)cc2)[nH]c2ccccc12` was tested, and the GI50 was 18.6 µM and the TGI was over 100 µM.
`Cc1cccc2c3c(sc12)C(c1ccc(F)cc1)C(C#N)=C(/N=C/c1ccc(Cl)cc1)O3` (centres undefined) gave a GI50 of 0.383 µM and a TGI of 12.6 µM.
`CC/C=C\C[C@H]1C/C=C2/C(=O)C=C[C@H]2C/C=C\CCCC(=O)O1` gave a GI50 of 1.56 µM and a TGI of 7.95 µM.
Work on `Nc1nc(N)c2c(n1)NC(c1sc(Cl)nc1Cl)CC(c1ccccc1)=N2` (centres undefined) yielded a GI50 of 2.12 µM and a TGI of 8.48 µM.
`COc1ccccc1C1C2=C(COC2=O)Oc2cc3c(cc21)OCO3` (centres undefined) showed a GI50 of 5.08 µM and a TGI of over 100 µM.
Compound `O=C(NC1CCN(Cc2ccccc2)CC1)c1cc(-c2cccnc2)nc2ccc(Cl)cc12` has a GI50 of 4.48 µM and a TGI of 57 µM.
Compound `O=CC(OC(=O)c1ccccc1)C(OC(=O)c1ccccc1)C(COC(c1ccccc1)(c1ccccc1)c1ccccc1)OC(=O)c1ccccc1` (centres undefined) has a GI50 of 11.8 µM and a TGI of 26.9 µM.
`CN1CCN(CCCOc2cccc3nc(Nc4cc(Cl)cc(Cl)c4)ccc23)CC1` was tested, and the GI50 was 1.69 µM and the TGI was 3.22 µM.
For `CNC(=O)c1cc(Oc2ccc3nc(NC(=O)Nc4ccc(CN5CCOCC5)c(C(F)(F)F)c4)sc3c2)ccn1`, the GI50 was 1.45 µM and the TGI was 4.95 µM.
With `CC(=O)N[C@H](C)[C@@H](O)[C@@H](C)[C@@H]1OC(=O)/C=C/C=C(C)\C=C\[C@]2(C)C[C@@H](NS(C)(=O)=O)C=C[C@@H]2/C=C(C)/C=C/[C@H]1C` the GI50 was 0.00245 µM and 0.00435 µM and the TGI was 2.12 µM and 7.39 µM.
